Literature values in patent publication US20050261210A1, “Nonsense suppressor agents in treatment of cutaneous and gastrointestinal disorders” (priority 2004, published 2005).
“Also recorded” adds a separate entry of the source. Read-outs that look alike come from different tables or passages of the source.

Key:
[1] = tested on: termination suppression (readthrough); details: for levels of termination suppression: in vitro assay, compared with tobramycin
dystrophin [2] = details: cultured muscle cells from mdx mice
dystrophin [3] = details: mdx mice, systemic treatment
dystrophin [4] = details: Duchenne muscular dystrophy patients with nonsense mutations
CFTR [5] = details: cultured respiratory epithelial cells with CFTR nonsense mutations
CFTR [6] = details: transgenic mouse model of nonsense-mutated CFTR
CFTR [7] = details: cystic fibrosis patients with CFTR nonsense mutation, application to nasal mucosa

Compound	level of read-through ([1]; compared with gentamicin)	levels of termination suppression [1]	dystrophin level (dystrophin [2])	dystrophin expression (dystrophin [3])	muscle injury (dystrophin [3]; versus untreated mdx mice)	dystrophin expression (dystrophin [4])	expression of functional CFTR protein (CFTR [5])	expression of functional CFTR protein (CFTR [6])	functional CFTR protein (CFTR [7])
NCC[C@H](O)C(=O)N[C@@H]1C[C@H](N)[C@@H](O[C@H]2O[C@H](CN)[C@@H](O)[C@H](O)[C@H]2O)[C@H](O)[C@H]1O[C@H]1O[C@H](CO)[C@@H](O)[C@H](N)[C@H]1O [amikacin]	higher level of read-through than gentamicin in some contexts	higher than those provided by tobramycin	–	–	–	–	–	–	–
gentamicin	–	higher than those provided by tobramycin	detectable levels of dystrophin	expression of the protein throughout the animal	protection against the muscle injury	treatment-dependent expression of dystrophin in some patients; also recorded: lack of response in others	restore expression of functional CFTR protein	restore expression of functional CFTR protein	restoration of functional CFTR protein
